Results taken from US10927100B2, “Degradable imidazolium oligomer and polymer for antimicrobial applications” (AGENCY FOR SCIENCE, TECHNOLOGY AND RESEARCH, priority 2017, dated 2021).
Values after ≈ are worked out from the molar mass of the structure shown. Where two headings read alike, the source gives them in different places.

Legend:
rat red blood cells = assay: Haemolysis; assay type: cell-based
Procedure: Fresh rat red blood cells (RBCs) were diluted with PBS buffer to give an RBC stock suspension (4 vol % blood cells). A 100 μL aliquot of RBC suspension was added into a 96-well plate containing 100 μL oligomer solutions of various concentrations (ranging from 4 mg mL^−1 to 2 μg mL^−1 in serial two-fold dilutions in PBS). After 1 hour incubation at 37° C., the contents of each well were pipetted into a micro-centrifuge tube and centrifuged at 2000 rpm for 5 minutes. Aliquots (100 μL) of the supernatant were transferred to a new 96-well plate. Haemolytic activity was determined as a function of haemoglobin release by measuring OD576 of 100 μL of the supernatant using a microplate reader (TECAN). A control solution that contained only PBS was used as a reference for 0% haemolysis. Absorbance of red blood cells lysed with 0.5% Triton-X was taken as 100% haemolysis. The data were expressed as mean and S.D. of four replicates, and the tests were repeated two times.

[1] = system: Escherichia coli (ATCC 8739, Gram-negative); assay: Minimum inhibitory concentration, microdilution assay; assay type: cell-based; settings: for MIC: Escherichia coli, ATCC8739
Procedure: (§1) Staphylococcus aureus (ATCC 6538, Gram-positive), Escherichia coli (ATCC 8739, Gram-negative), Pseudomonas aeruginosa (Gram-negative), and Candida albicans (ATCC 10231, fungus) were used as representative microorganisms to challenge the antimicrobial functions of the imidazolium salts. All bacteria and fungus were stored frozen at −80° C., and were grown overnight at 37° C. in Mueller Hinton Broth (MHB) prior to experiments. Fungus was grown overnight at 22° C. in Yeast Mold (YM) broth. […] The plates were incubated at 37° C. for 24 hours with constant shaking speed at 300 rpm. […] PBS solution containing microbial cells alone were used as negative controls. The assay was performed in four replicates and the experiments were repeated at least two times.

[2] = system: Pseudomonas aeruginosa (Gram-negative); assay: as above; assay type: cell-based; settings: for MIC: Pseudomonas aeruginosa
Procedure: as §1

[3] = system: Candida albicans (ATCC 10231, fungus); assay: as above; assay type: cell-based; settings: for MIC: Candida albicans, ATCC10231
Procedure: as §1

[4] = system: Staphylococcus aureus (ATCC 6538, Gram-positive); assay: as above; assay type: cell-based
Procedure: as §1

S. aureus [5] = assay: Resistance studies, serial passage at sub-MIC; assay type: cell-based, Staphylococcus aureus; settings: for resistance to polymers IBN-CP1 or IBN-CP3 after growth with degradation product: media containing 2, 8, 16 and 100 μg/ml over one month
Procedure: The method was adapted from that of Yang and co-authors with modification [K. Fukushima, S. Liu, H. Wu, A. C. Engler, D. J. Coady, H. Maune, J. Pitera, A. Nelson, N. Wiradharma, S. Venkataraman, Y. Huang, W. Fan, J. Y. Ying, Y. Y. Yang, J. L. Hedrick. Nature Comm, 2013, 4:2861]. Drug resistance was induced by treating S. aureus repeatedly with degradable oligomers. First MICs of the tested oligomers were determined against S. aureus using the broth microdilution method. Then serial passaging was initiated by transferring bacterial suspension grown at the sub-MIC of the oligomers (½ of MIC at that passage) and was subjected to another MIC assay. After 24 hours incubation period, cells grown at the sub-MIC of the test compounds/antibiotics were once again transferred and assayed for MIC. The MIC against S. aureus was tested for 16 passages.
Drug-resistant behaviour of S. aureus was evaluated by recording the changes in the MIC normalized to that of the first passage. Conventional antibiotics vancomycin was used as the control.

E. coli and S. aureus = assay: SEM observation of bacteria treated with oligomers; assay type: cell-based; settings: 4MIC, exposure two minutes
Procedure: Bacterial cells (3×10^8 CFU/mL) grown in MHB without or with the oligomers at 4MIC for 2 minutes were collected and centrifuged at 5000 rpm for 5 minutes. The precipitates were washed twice with PBS buffer. Then the samples were fixed with glutaraldehyde (2.5%) for 2 hours followed by washing with DI water. Dehydration of the samples was performed using a series of ethanol/water solution (35%, 50%, 75%, 90%, 95% and 100%). The dehydrated samples were mounted on copper tape. After drying for 2 days, the samples were further coated with platinum for imaging with JEOL JSM-7400F (Japan) field emission scanning electron microscope operated at an accelerating voltage of 5 keV.

[6] = Critical gelation concentration in alcohols; assay type: physicochemical
Procedure: Gels were prepared by weighing the imidazolium oligomers directly into 4 mL glass vials and subsequently adding a known weight or volume of the solvent. The vials containing both the imidazolium and the solvent were either heated or sonicated to aid the dissolution process. The vials were left standing over night at ambient conditions. The gel state was evaluated by the stable-to-inversion-of-a-test-tube method. The critical gelation concentration (CGC) is defined as the lowest concentration of the gelator which leads to a stable gel.

E. coli = assay: Agar well diffusion assay; assay type: cell-based, Escherichia coli
Procedure: (§2) The degradable oligomers were dissolved in ethanol and glycerol at 0.5% w/v concentration. Agar plates were inoculated with bacteria and 6 mm wells were cut, into which 20 μL of solution was added. Plates were inoculated at 37° C. for 24 hours and zone of inhibitions measured using a pair of vernier calipers.

[7] = Oligomer and polymer degradation by 1H NMR spectroscopy; assay type: physicochemical; settings: pH 6-8 buffered solutions, ambient conditions
Procedure: Sorenson's phosphate buffer (pH, 6.0, 7.0, 8.0), tris buffer (pH 6.0, 7.0, 8.0) and sodium citrate-citric acid buffer (pH 3.0, 4.0, 5.0) were prepared in deionized water at concentrations of 100 mM, as well as 10 mM for tris buffer solution. […] A 4 mg sample of imidazolium oligomer or polymer was dissolved in deuterated buffer solution with care taken to ensure complete solution of the compounds. […] Degradation of the carbonate and ester-linked compounds was observed by disappearance of the signal of the methylene protons adjacent to the carbonate or ester functional group, and/or appearance of the signal of the methylene protons adjacent to the hydroxyl group in the degradation product.

S. aureus [8] = assay: Agar well diffusion assay; assay type: cell-based, Staphylococcus aureus
Procedure: as §2

P. aeruginosa = assay: Agar well diffusion assay; assay type: cell-based, Pseudomonas aeruginosa
Procedure: as §2

[9] = rat red blood cells, 1 hour, 37° C.
[10] = Staphylococcus aureus, ATCC6538; read-out: MIC S. aureus
[11] = 0.5% w/v solution in glycerol, compared with ethanol solution

SMILES | HC10 (rat red blood cells; [9]) | MIC E. coli [1] | MIC P. aeruginosa [2] | MIC C. albicans [3] | MIC S. aureus [4] | other results
CCCCCCCCn1cc[n+](Cc2ccc(Cn3cc[n+](Cc4ccc(C[n+]5ccn(Cc6ccc(CN)cc6)c5)cc4)c3)cc2)c1.[Br-].[Br-].[Br-] [F1-CH2NH2] | 1000 µg/mL | 16 µg/mL | 250 µg/mL | 62 µg/mL | 125 µg/mL | 
CCCCCCCCn1cc[n+](Cc2ccc(Cn3cc[n+](Cc4ccc(C[n+]5ccn(Cc6ccc(CO)cc6)c5)cc4)c3)cc2)c1.[Br-].[Br-].[Br-] [F1-CH2OH] | >2000 µg/mL | 2000 µg/mL | 2000 µg/mL | 250 µg/mL | >2000 µg/mL | hemolysis at highest concentration (rat red blood cells; 2000 μg/ml): did not induce hemolysis
CCCCCCCCn1cc[n+](Cc2ccc(Cn3cc[n+](Cc4ccc(C[n+]5ccn(Cc6ccc(C(=O)O)cc6)c5)cc4)c3)cc2)c1.[Br-].[Br-].[Br-] [F1-COOH] |  | 31 µg/mL | >2000 µg/mL | 500 µg/mL | 62 µg/mL | 
OCc1ccc(Cn2cc[n+](C/C=C/Cn3cc[n+](Cc4ccc(CO)cc4)c3)c2)cc1 [F-diol1] | >2000 µg/mL |  |  |  |  | HC10 (rat red blood cells): >2000 ppm; resistance to polymers IBN-CP1 or IBN-CP3 after growth with degradation product (S. aureus [5]): did not develop resistance; MIC ([1]; read-out: MIC E. coli): > 2000 µg/mL; MIC ([1]; read-out: MIC EC): > 2000 µg/mL; MIC ([2]; read-out: MIC P. aeruginosa): 2000 µg/mL; MIC ([2]; read-out: MIC PA): 2000 µg/mL; MIC ([3]; read-out: MIC C. albicans): > 2000 µg/mL; MIC ([3]; read-out: MIC CA): > 2000 µg/mL; MIC [4, 10]: 125 µg/mL; MIC ([4]; Staphylococcus aureus, ATCC6538; read-out: MIC SA): 12 µg/mL
OCc1ccc(Cn2cc[n+](Cc3ccc(C[n+]4ccn(Cc5ccc(CO)cc5)c4)cc3)c2)cc1.[Br-].[Br-] [F-diol2] | >2000 µg/mL | >2000 µg/mL | >2000 µg/mL | >2000 µg/mL | 2000 µg/mL | 
OCc1ccc(Cn2cc[n+](Cc3ccccc3Cn3cc[n+](Cc4ccc(CO)cc4)c3)c2)cc1 [F-diol3] | >2000 µg/mL |  |  |  |  | resistance to polymers IBN-CP1 or IBN-CP3 after growth with degradation product (S. aureus [5]): did not develop resistance; MIC ([1]; read-out: MIC E. coli): > 2000 µg/mL; MIC ([2]; read-out: MIC P. aeruginosa): > 4000 µg/mL; MIC ([3]; read-out: MIC C. albicans): > 2000 µg/mL; MIC [4, 10]: 500 µg/mL
OCc1ccccc1Cn1cc[n+](C/C=C/C[n+]2ccn(Cc3ccccc3CO)c2)c1.[Br-].[Br-] [F-diol4] |  | 1000 µg/mL | >2000 µg/mL | >2000 µg/mL | 250 µg/mL | 
OCc1ccccc1Cn1cc[n+](Cc2ccccc2C[n+]2ccn(Cc3ccccc3CO)c2)c1.[Br-].[Br-] [F-diol5] | >2000 µg/mL | 250 µg/mL | >2000 µg/mL | >2000 µg/mL | 125 µg/mL | 
CCCCCCCCn1cc[n+](Cc2ccc(Cn3cc[n+](Cc4ccc(C[n+]5ccn(Cc6ccc(OCn7cc[n+](Cc8ccc(Cn9cc[n+](Cc%10ccc(Cn%11cc[n+](CCCCCCCC)c%11)cc%10)c9)cc8)c7)cc6)c5)cc4)c3)cc2)c1.[Br-].[Br-].[Br-].[Br-].[Br-].[Br-] [IBN-HC8] | >2000 µg/mL | 8 µg/mL | 125 µg/mL | 125 µg/mL | 16 µg/mL | bacterial cell walls in SEM images (E. coli and S. aureus): disrupted and subsequently dissolved; Critical gelation concentration ([6]; ethanol): 1.5 wt %; Critical gelation concentration ([6]; n-butanol): 1.0 wt %; Critical gelation concentration ([6]; n-propanol): 0.5 wt %; zone of inhibition (E. coli; 0.5% w/v in ethanol): larger zones of inhibition than ethanol on its own; zone of inhibition (E. coli; [11]): comparable efficacy; passage at which MIC increase was observed (S. aureus [5]; sub-MIC levels, 16 passages): 8 passage; degradation in buffered solutions [7]: not significantly degraded; zone of inhibition (S. aureus [8]; 0.5% w/v in ethanol): larger zones of inhibition than ethanol on its own; zone of inhibition (S. aureus [8]; [11]): comparable efficacy; zone of inhibition (P. aeruginosa; 0.5% w/v in ethanol): comparable zones of inhibition compared to ethanol; zone of inhibition (P. aeruginosa; [11]): comparable efficacy
CN[C@H](CC(C)C)C(=O)N[C@H]1C(=O)N[C@@H](CC(N)=O)C(=O)N[C@H]2C(=O)N[C@H]3C(=O)N[C@H](C(=O)N[C@H](C(=O)O)c4cc(O)cc(O)c4-c4cc3ccc4O)[C@H](O)c3ccc(c(Cl)c3)Oc3cc2cc(c3O[C@@H]2O[C@H](CO)[C@@H](O)[C@H](O)[C@H]2O[C@H]2C[C@](C)(N)[C@H](O)[C@H](C)O2)Oc2ccc(cc2Cl)[C@H]1O [Vancomycin, reference compound] | >2000 µg/mL |  |  |  |  | change of MIC value over serial passages (S. aureus [5]; sub-MIC levels, 16 passages): quadrupled; passage at which MIC increase was observed (S. aureus [5]; sub-MIC levels, 16 passages): 5 passage; MIC ([4]; Staphylococcus aureus, ATCC6538, read-out: MIC S. aureus): 2 µg/mL (≈ 1.38 µM)
CCn1cc(C(=O)O)c(=O)c2cc(F)c(N3CCNCC3)cc21 [norfloxacin, reference compound] |  |  |  |  |  | MIC value relative to its original value (S. aureus [5]; by the 15th passage): over 120 times
